Values of other authors, collected in US8709164B2, “Methods and compositions for dislodging debris particles from a substrate” (University of South Carolina, priority 2010, dated 2014).

Tests used:
D. farinae = conditions: among 15 chemicals
D. pteronyssinus = conditions: washing soak with addition of 0.03% benzyl benzoate

| Structure (SMILES) | ability to kill D. farinae (words, order of potency) (D. farinae) | mites survived out of 10,000 (D. pteronyssinus) |
| --- | --- | --- |
| Cl[C@H]1[C@H](Cl)[C@@H](Cl)[C@@H](Cl)[C@H](Cl)[C@H]1Cl [Lindane] | most effective | – |
| O=C(OCc1ccccc1)c1ccccc1 [benzyl benzoate] | most effective | approximately 50 |
| CCN(CC)c1nc(C)cc(OP(=S)(OC)OC)n1 [pirimiphosmethyl] | most effective | – |
